Laboratory results from ChEMBL document CHEMBL1128255, “Synthesis of 11 beta-[18F]fluoro-5 alpha-dihydrotestosterone and 11 beta-[18F]fluoro-19-nor-5 alpha-dihydrotestosterone: preparation via halofluorination-reduction, receptor binding, and tissue distribution” (J Med Chem, 1995).

Legend:
[1] = %ID/g is percent injected dose per gram of tissue and in vivo distribution of compound obtained after 2 hour in bone; type: ADME, organism-based, Bone element
[2] = %ID/g is percent injected dose per gram of tissue and in vivo distribution of compound obtained after 2 hour (low) in bladder; type: ADME, organism-based, Urinary bladder
[3] = %ID/g is percent injected dose per gram of tissue and in vivo distribution of compound obtained after 2 hour (low) in liver; type: ADME, organism-based
[4] = %ID/g is percent injected dose per gram of tissue and in vivo distribution of compound obtained after 2 hour (low) in lung; type: ADME, organism-based
[5] = %ID/g is percent injected dose per gram of tissue and in vivo distribution of compound obtained after 4 hour in lung; type: ADME, organism-based
[6] = %ID/g is percent injected dose per gram of tissue and in vivo distribution of compound obtained after 1 hour in prostate (d); type: ADME, organism-based, Prostate gland
[7] = %ID/g is percent injected dose per gram of tissue and in vivo distribution of compound obtained after 2 hour in spleen; type: ADME, organism-based
[8] = %ID/g is percent injected dose per gram of tissue and in vivo distribution of compound obtained after 2 hour (blocked) in muscle; type: ADME, organism-based
[9] = %ID/g is percent injected dose per gram of tissue and in vivo distribution of compound obtained after 1 hour in spleen; type: ADME, organism-based
[10] = %ID/g is percent injected dose per gram of tissue and in vivo distribution of compound obtained after 2 hr in kidney; type: ADME, organism-based
[11] = %ID/g is percent injected dose per gram of tissue and in vivo distribution of compound obtained after 2 hour (blocked) in lung; type: ADME, organism-based
[12] = %ID/g is percent injected dose per gram of tissue and in vivo distribution of compound obtained after 4 hour in prostate (v); type: ADME, organism-based, Prostate gland
[13] = %ID/g is percent injected dose per gram of tissue and in vivo distribution of compound obtained after 2 hour (low) in bone; type: ADME, organism-based, Bone element
[14] = %ID/g is percent injected dose per gram of tissue and in vivo distribution of compound obtained after 1 hour in muscle; type: ADME, organism-based
[15] = %ID/g is percent injected dose per gram of tissue and in vivo distribution of compound obtained after 4 hour in muscle; type: ADME, organism-based
[16] = %ID/g is percent injected dose per gram of tissue and in vivo distribution of compound obtained after 4 hour in bladder; type: ADME, organism-based, Urinary bladder
[17] = %ID/g is percent injected dose per gram of tissue and in vivo distribution of compound obtained after 2 hour in prostate (d); type: ADME, organism-based, Prostate gland
[18] = %ID/g is percent injected dose per gram of tissue and in vivo distribution of compound obtained after 2 hour (low) in prostate (d); type: ADME, organism-based, Prostate gland
[19] = %ID/g is percent injected dose per gram of tissue and in vivo distribution of compound obtained after 2 hour in muscle; type: ADME, organism-based
[20] = %ID/g is percent injected dose per gram of tissue and in vivo distribution of compound obtained after 2 hour (blocked)i n prostate (d)/biood; type: ADME, organism-based, Prostate gland
[21] = %ID/g is percent injected dose per gram of tissue and in vivo distribution of compound obtained after 2 hour (low) in blood; type: ADME, organism-based
[22] = %ID/g is percent injected dose per gram of tissue and in vivo distribution of compound obtained after 2 hour (low) in prostate (v); type: ADME, organism-based, Prostate gland
[23] = %ID/g is percent injected dose per gram of tissue and in vivo distribution of compound obtained after 4 hour in blood; type: ADME, organism-based
[24] = %ID/g is percent injected dose per gram of tissue and in vivo distribution of compound obtained after 1 hour in fat; type: ADME, organism-based, Adipose tissue
[25] = %ID/g is percent injected dose per gram of tissue and in vivo distribution of compound obtained after 2 hour (blocked) in prostate (d)/muscle; type: ADME, organism-based
[26] = %ID/g is percent injected dose per gram of tissue and in vivo distribution of compound obtained after 4 hour in liver; type: ADME, organism-based
[27] = %ID/g is percent injected dose per gram of tissue and in vivo distribution of compound obtained after 4 hour in prostate (d); type: ADME, organism-based, Prostate gland
[28] = %ID/g is percent injected dose per gram of tissue and in vivo distribution of compound obtained after 4 hour in prostate (d)/biood; type: ADME, organism-based, Prostate gland
[29] = %ID/g is percent injected dose per gram of tissue and in vivo distribution of compound obtained after 2 hour in prostate (v)/blood; type: ADME, organism-based
[30] = %ID/g is percent injected dose per gram of tissue and in vivo distribution of compound obtained after 2 hour (low) in muscle; type: ADME, organism-based
[31] = %ID/g is percent injected dose per gram of tissue and in vivo distribution of compound obtained after 2 hour in blood; type: ADME, organism-based
[32] = %ID/g is percent injected dose per gram of tissue and in vivo distribution of compound obtained after 1 hour in prostate (d)/muscle; type: ADME, organism-based
[33] = %ID/g is percent injected dose per gram of tissue and in vivo distribution of compound obtained after 2 hour (blocked) in spleen; type: ADME, organism-based
[34] = %ID/g is percent injected dose per gram of tissue and in vivo distribution of compound obtained after 1 hour in liver; type: ADME, organism-based
[35] = %ID/g is percent injected dose per gram of tissue and in vivo distribution of compound obtained after 2 hour (blocked) in fat; type: ADME, organism-based, Adipose tissue
[36] = %ID/g is percent injected dose per gram of tissue and in vivo distribution of compound obtained after 2 hour (low) in prostate (v)/blood; type: ADME, organism-based
[37] = %ID/g is percent injected dose per gram of tissue and in vivo distribution of compound obtained after 1 hour in prostate (v)/blood; type: ADME, organism-based
[38] = %ID/g is percent injected dose per gram of tissue and in vivo distribution of compound obtained after 2 hour (low) in spleen; type: ADME, organism-based
[39] = %ID/g is percent injected dose per gram of tissue and in vivo distribution of compound obtained after 2 hour (low) in prostate (v)/muscle; type: ADME, organism-based
[40] = %ID/g is percent injected dose per gram of tissue and in vivo distribution of compound obtained after 2 hour (blocked) in prostate (d); type: ADME, organism-based, Prostate gland
[41] = %ID/g is percent injected dose per gram of tissue and in vivo distribution of compound obtained after 1 hour in lung; type: ADME, organism-based
[42] = %ID/g is percent injected dose per gram of tissue and in vivo distribution of compound obtained after 1 hour in prostate (v)/muscle; type: ADME, organism-based
[43] = %ID/g is percent injected dose per gram of tissue and in vivo distribution of compound obtained after 1 hour in kidney; type: ADME, organism-based
[44] = %ID/g is percent injected dose per gram of tissue and in vivo distribution of compound obtained after 4 hour in kidney; type: ADME, organism-based
[45] = %ID/g is percent injected dose per gram of tissue and in vivo distribution of compound obtained after 2 hour in lung; type: ADME, organism-based
[46] = %ID/g is percent injected dose per gram of tissue and in vivo distribution of compound obtained after 2 hour (blocked) in bladder; type: ADME, organism-based, Urinary bladder
[47] = %ID/g is percent injected dose per gram of tissue and in vivo distribution of compound obtained after 1 hour in blood; type: ADME, organism-based
[48] = %ID/g is percent injected dose per gram of tissue and in vivo distribution of compound obtained after 4 hour in bone; type: ADME, organism-based, Bone element
[49] = %ID/g is percent injected dose per gram of tissue and in vivo distribution of compound obtained after 2 hour (blocked) in prostate (v)/muscle; type: ADME, organism-based
[50] = %ID/g is percent injected dose per gram of tissue and in vivo distribution of compound obtained after 2 hour in bladder; type: ADME, organism-based, Urinary bladder

With `C[C@]12C[C@H](F)[C@H]3[C@@H](CC[C@H]4CC(=O)CC[C@@H]43)[C@@H]1CC[C@@H]2O` the ID/g [1] was 0.077%, the ID/g [2] was 0.686% and the ID/g [3] was 1.045%. For the same molecule, the ID/g [4] was 0.061%, the ID/g [5] was 0.046% and the ID/g [6] was 0.21%. The ID/g [7] was 0.036%, the ID/g [8] was 0.03% and the ID/g [9] was 0.061%. For the same molecule, the ID/g [10] was 0.276%, the ID/g [11] was 0.054% and the ID/g [12] was 0.066%. It also gave an ID/g [13] of 0.096%, an ID/g [14] of 0.064% and an ID/g [15] of 0.027%. The ID/g [16] was 0.456%, the ID/g [17] was 0.132% and the ID/g [18] was 0.139%. It also gave an ID/g [19] of 0.035%, an ID/g [20] of 0.815% and an ID/g [21] of 0.047%. It also gave an ID/g [22] of 0.109%, an ID/g [23] of 0.035% and an ID/g [24] of 0.069%. It also gave an ID/g [25] of 1.61%, an ID/g [26] of 0.863% and an ID/g [27] of 0.084%. The ID/g [28] was 2.682%, the ID/g [29] was 2.605% and the ID/g [30] was 0.037%. For the same molecule, the ID/g [31] was 0.046%, the ID/g [32] was 3.473% and the ID/g [33] was 0.032%. For the same molecule, the ID/g [34] was 1.812%, the ID/g [35] was 0.036% and the ID/g [36] was 2.427%. For the same molecule, the ID/g [37] was 3.054%, the ID/g [38] was 0.049% and the ID/g [39] was 2.993%. It also gave an ID/g [40] of 0.048%, an ID/g [41] of 0.115% and an ID/g [42] of 4.4%. For the same molecule, the ID/g [43] was 0.458%, the ID/g [44] was 0.201% and the ID/g [45] was 0.058%. It also gave an ID/g [46] of 11.404%, an ID/g [47] of 0.089% and an ID/g [48] of 0.078%. For the same molecule, the ID/g [49] was 1.763% and the ID/g [50] was 4.549%.

`C[C@]12CCC(=O)C[C@@H]1CC[C@@H]1[C@@H]2[C@@H](F)C[C@]2(C)[C@@H](O)CC[C@@H]12` showed an ID/g [1] of 0.061%, an ID/g [2] of 0.263% and an ID/g [3] of 0.228%. The ID/g [4] was 0.036%, the ID/g [5] was 0.035% and the ID/g [6] was 0.459%. For the same molecule, the ID/g [7] was 0.03%, the ID/g [8] was 0.023% and the ID/g [9] was 0.048%. For the same molecule, the ID/g [10] was 0.229%, the ID/g [11] was 0.039% and the ID/g [12] was 0.327%. The ID/g [13] was 0.059%, the ID/g [14] was 0.059% and the ID/g [15] was 0.017%. For the same molecule, the ID/g [16] was 0.268%, the ID/g [17] was 0.352% and the ID/g [18] was 0.229%. It also gave an ID/g [19] of 0.038%, an ID/g [20] of 1.465% and an ID/g [21] of 0.022%. For the same molecule, the ID/g [22] was 0.212%, the ID/g [23] was 0.028% and the ID/g [24] was 0.061%. It also gave an ID/g [25] of 3.089%, an ID/g [26] of 0.415% and an ID/g [27] of 0.291%. The ID/g [28] was 10.827%, the ID/g [29] was 10.058% and the ID/g [30] was 0.026%. For the same molecule, the ID/g [31] was 0.038%, the ID/g [32] was 7.75% and the ID/g [33] was 0.026%. For the same molecule, the ID/g [34] was 1.16%, the ID/g [35] was 0.026% and the ID/g [36] was 10.43%. The ID/g [37] was 5.41%, the ID/g [38] was 0.017% and the ID/g [39] was 8.86%. The ID/g [40] was 0.074%, the ID/g [41] was 0.111% and the ID/g [42] was 8.208%. The ID/g [43] was 0.417%, the ID/g [44] was 0.155% and the ID/g [45] was 0.069%. The ID/g [46] was 0.903%, the ID/g [47] was 0.092% and the ID/g [48] was 0.072%. The ID/g [49] was 2.895% and the ID/g [50] was 0.165%.
